Experimental data from patent US10597388B2, “Pyridazinone herbicides” (FMC CORPORATION, priority 2014, dated 2020).
Where two headings read alike, the source gives them in different places.

Legend:
Type in all cases: in vivo
[1] = system: pigweed (Amaranthus retroflexus); test: Test A greenhouse herbicide test, pre- and postemergence; conditions: for pest or weed control at 1000 g/ha / pest or weed control at 125 g/ha / pest or weed control at 500 g/ha: Amaranthus retroflexus, 240 h; for pest or weed control at 1000 g/ha: 1000 g ai/ha
In short: (§1)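 Visual injury ratings, 0 (no effect) to 100 (complete control), versus untreated plants after roughly 10 d in a greenhouse. Compounds, formulated in a surfactant-containing non-phytotoxic solvent, were sprayed on loam–sand soil after sowing (pre) or on one- to two-leaf plants 2–10 cm tall (post).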

[2] = system: barnyardgrass (Echinochloa crus-galli); test: as above; conditions: for pest or weed control at 1000 g/ha / pest or weed control at 125 g/ha / pest or weed control at 500 g/ha: Echinochloa crus-galli, 240 h; for pest or weed control at 1000 g/ha: 1000 g ai/ha
In short: as §1

[3] = system: chickweed (common chickweed, Stellaria media); test: Test C greenhouse herbicide test, postemergence
In short: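 Steps: pot plants in peat-based medium; spray postemergence at 1- to 4-leaf stage; hold in greenhouse 13 to 15 d; score visually against controls from 0 (no effect) to 100 (complete control).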

[4] = system: sedge, umbrella (small-flower umbrella sedge, Cyperus difformis); test: Test B flooded paddy test; conditions: 250 g ai/ha, Flood, visual rating on scale of 0 to 100 where 0 is no effect and 100 is complete control, 13 to 15 d after treatment; for pest or weed control at 250 g/ha: Cyperus difformis, 360 h, read-out: Plant response rating, Sedge, Umbrella
In short: (§2)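 Ratings use a 0-100 visual scale, where 100 is complete control, and compare treated plants with controls after 13 to 15 d of greenhouse growth. Compound went straight into paddy water kept 3 cm over the soil surface, applied to seedlings at the 2-leaf stage.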

[5] = system: ducksalad (Heteranthera limosa); test: Test B flooded paddy test; conditions: 250 g ai/ha, Flood, visual rating on scale of 0 to 100 where 0 is no effect and 100 is complete control, 13 to 15 d after treatment; for pest or weed control at 250 g/ha: Heteranthera limosa, 360 h, read-out: Plant response rating, Ducksalad
In short: as §2

[6] = system: rice (Oryza sativa); test: Test B flooded paddy test; conditions: 250 g ai/ha, Flood, visual rating on scale of 0 to 100 where 0 is no effect and 100 is complete control, 13 to 15 d after treatment; for plant injury at 250 g/ha: Oryza sativa, 360 h, read-out: Plant response rating, Rice
In short: as §2

[7] = system: barnyardgrass (Echinochloa crus-galli); test: Test B flooded paddy test; conditions: 250 g ai/ha, Flood, visual rating on scale of 0 to 100 where 0 is no effect and 100 is complete control, 13 to 15 d after treatment; for pest or weed control at 250 g/ha: Echinochloa crus-galli, 360 h, read-out: Plant response rating, Barnyardgrass
In short: as §2

[8] = Postemergence, 31 g ai/ha, 0 to 100 scale (0 no effect, 100 complete control)
[9] = Postemergence, 125 g ai/ha, scale 0 to 100, 0 is no effect, 100 is complete control
[10] = Postemergence, 250 g ai/ha, scale 0 to 100, 0 no effect, 100 complete control, 13 to 15 d
[11] = postemergence, 62 g ai/ha, scale 0 to 100, 0 no effect, 100 complete control
[12] = post-emergence, Postemergence, 125 g ai/ha, visual rating after approx. 10 d, 0 to 100 scale (0 no effect, 100 complete control), read-out: Plant response rating, Pigweed
[13] = post-emergence, Postemergence, 500 g ai/ha, 0 to 100 scale, 0 is no effect, 100 is complete control, read-out: Pigweed plant response rating
[14] = pre-emergence, Preemergence, 125 g ai/ha, 0 to 100 scale where 0 is no effect and 100 is complete control, read-out: Pigweed plant response rating
[15] = pre-emergence, Preemergence, 500 g ai/ha, 0 to 100 scale, 0 no effect, 100 complete control, read-out: Plant response rating, Pigweed
[16] = post-emergence, Postemergence, 125 g ai/ha, visual rating after approx. 10 d, 0 to 100 scale (0 no effect, 100 complete control), read-out: Plant response rating, Barnyardgrass
[17] = post-emergence, Postemergence, 500 g ai/ha, 0 to 100 scale, 0 is no effect, 100 is complete control, read-out: Barnyardgrass plant response rating
[18] = pre-emergence, Preemergence, 125 g ai/ha, 0 to 100 scale where 0 is no effect and 100 is complete control, read-out: Barnyardgrass plant response rating
[19] = pre-emergence, Preemergence, 500 g ai/ha, 0 to 100 scale, 0 no effect, 100 complete control, read-out: Plant response rating, Barnyardgrass
[20] = Postemergence, 125 g ai/ha, 0 to 100 scale where 0 is no effect and 100 is complete control
[21] = Postemergence, 500 g ai/ha, visual rating after approx. 10 d, 0 to 100 scale (0 no effect, 100 complete control)
[22] = Preemergence, 125 g ai/ha, 0 to 100 scale where 0 is no effect and 100 is complete control
[23] = Preemergence, 500 g ai/ha, 0 to 100 scale where 0 is no effect and 100 is complete control
[24] = Postemergence, 125 g ai/ha, 0 to 100 scale, 0 no effect, 100 complete control
[25] = Preemergence, 125 g ai/ha, visual injury rating, 0 to 100 scale (0 no effect, 100 complete control), approx. 10 d

| SMILES | Chickweed plant response rating [3, 8] | Plant response rating, Chickweed [3, 9] | pest or weed control at 250 g/ha [4] | pest or weed control at 250 g/ha [5] | plant injury at 250 g/ha [6] | pest or weed control at 250 g/ha [7] | pest or weed control at 500 g/ha [1, 13] | pest or weed control at 125 g/ha [1, 14] | pest or weed control at 500 g/ha [1, 15] | pest or weed control at 500 g/ha [2, 17] | pest or weed control at 125 g/ha [2, 18] | pest or weed control at 500 g/ha [2, 19] | Plant response rating, Pigweed [1, 21] | Plant response rating, Pigweed [1, 23] | Plant response rating, Barnyardgrass [2, 21] | Plant response rating, Barnyardgrass [2, 23] | Plant response rating, Sedge, Umbrella [4] | Plant response rating, Ducksalad [5] | Plant response rating, Rice [6] | Plant response rating, Barnyardgrass [7] | other results |
| --- | --- | --- | --- | --- | --- | --- | --- | --- | --- | --- | --- | --- | --- | --- | --- | --- | --- | --- | --- | --- | --- |
| Cc1ccc2sc(C)c(-c3c(O)c(C)nn(C)c3=O)c2c1 [Compound 1, 4-(2,5-dimethylbenzo[b]thien-3-yl)-5-hydroxy-2,6-dimethyl-3(2H)-pyridazinone] | 95 | 98 | 0% | 20% | 0% | 0% |  |  |  |  |  |  |  |  |  |  |  |  |  |  | pest or weed control at 1000 g/ha ([1]; post-emergence, Postemergence, 0 to 100 scale, 0 is no effect, 100 is complete control, read-out: Pigweed plant response rating): 100%; pest or weed control at 1000 g/ha ([1]; pre-emergence, Preemergence, 0 to 100 scale, 0 no effect, 100 complete control, read-out: Plant response rating, Pigweed): 100%; pest or weed control at 1000 g/ha ([2]; post-emergence, Postemergence, 0 to 100 scale, 0 is no effect, 100 is complete control, read-out: Barnyardgrass plant response rating): 90%; pest or weed control at 1000 g/ha ([2]; pre-emergence, Preemergence, 0 to 100 scale, 0 no effect, 100 complete control, read-out: Plant response rating, Barnyardgrass): 90%; Plant response rating, Chickweed [3, 10]: 100; Chickweed plant response rating [3, 11]: 95 |
| CC(=O)Oc1c(C)nn(C)c(=O)c1-c1c(C)oc2ccc(C)cc12 [Compound 14, 5-(acetyloxy)-4-(2,5-dimethyl-3-benzofuranyl)-2,6-dimethyl-3(2H)-pyridazinone] | 90 | 90 | 0% | 0% | 0% | 0% | 80% | 70% | 90% | 70% | 0% | 40% |  |  |  |  |  |  |  |  | pest or weed control at 125 g/ha [1, 12]: 60%; pest or weed control at 125 g/ha [2, 16]: 10%; Plant response rating, Chickweed [3, 10]: 90; Chickweed plant response rating [3, 11]: 90 |
| CC(=O)Oc1c(C)nn(C)c(=O)c1-c1c(C)oc2c(C)cc(C)cc12 [Compound 16, 5-(acetyloxy)-2,6-dimethyl-4-(2,5,7-trimethyl-3-benzofuranyl)-3(2H)-pyridazinone] | 75 | 90 | 0% | 30% | 0% | 0% | 40% | 0% | 70% | 90% | 10% | 70% |  |  |  |  |  |  |  |  | pest or weed control at 125 g/ha [1, 12]: 30%; pest or weed control at 125 g/ha [2, 16]: 20%; Plant response rating, Chickweed [3, 10]: 90; Chickweed plant response rating [3, 11]: 80 |
| CCc1sc2cc(C)cc(C)c2c1-c1c(O)c(C)nn(C)c1=O [Compound 19, 4-(2-ethyl-4,6-dimethylbenzo[b]thien-3-yl)-5-hydroxy-2,6-dimethyl-3(2H)-pyridazinone] |  |  | 0% | 0% | 0% | 0% | 0% | 0% | 0% | 80% | 30% | 90% |  |  |  |  |  |  |  |  | pest or weed control at 125 g/ha [1, 12]: 0%; pest or weed control at 125 g/ha [2, 16]: 20% |
| COc1nn(C)c(=O)c(-c2c(C)c(C)cc3ccccc23)c1O [Compound 46, 4-(2,3-dimethyl-1-naphthalenyl)-5-hydroxy-6-methoxy-2-methyl-3(2H)-pyridazinone] |  |  | 0% | 0% | 0% | 0% | 90% | 30% | 100% | 80% | 20% | 60% |  |  |  |  |  |  |  |  | pest or weed control at 125 g/ha ([1]; post-emergence, Postemergence, 125 g ai/ha, 0 to 100 scale where 0 is no effect and 100 is complete control, read-out: Plant response rating, Pigweed): 70%; pest or weed control at 125 g/ha ([2]; post-emergence, Postemergence, 125 g ai/ha, 0 to 100 scale where 0 is no effect and 100 is complete control, read-out: Plant response rating, Barnyardgrass): 20% |
| CCC(=O)Oc1c(C)nn(C)c(=O)c1-c1ccc(Br)c2ccccc12 [Compound 133] |  |  |  |  |  |  |  |  |  |  |  |  | 100 | 100 | 90 | 50 | 0 | 0 | 20 | 0 | Plant response rating, Pigweed [1, 20]: 90; Pigweed plant response rating [1, 22]: 80; Plant response rating, Barnyardgrass [2, 20]: 20; Barnyardgrass plant response rating [2, 22]: 20 |
| COC(=O)Oc1c(Br)nn(C)c(=O)c1-c1c(C)ccc2ccccc12 [Compound 137] |  |  |  |  |  |  |  |  |  |  |  |  | 100 | 100 | 100 | 100 | 65 | 40 | 0 | 25 | Plant response rating, Pigweed [1, 20]: 100; Pigweed plant response rating [1, 22]: 100; Plant response rating, Barnyardgrass [2, 20]: 70; Barnyardgrass plant response rating [2, 22]: 90 |
| COc1nn(C)c(=O)c(-c2c(C)ccc3ccccc23)c1OC(C)=O [Compound 138] |  |  |  |  |  |  |  |  |  |  |  |  | 100 | 100 | 100 | 100 | 0 | 0 | 0 | 0 | Plant response rating, Pigweed [1, 20]: 90; Pigweed plant response rating [1, 22]: 100; Plant response rating, Barnyardgrass [2, 20]: 20; Barnyardgrass plant response rating [2, 22]: 10 |
| Cc1ccc2ccccc2c1-c1c(OC(=O)N2CCOCC2)c(Br)nn(C)c1=O [Compound 176] |  |  |  |  |  |  |  |  |  |  |  |  | 90 | 90 | 10 | 10 | 0 | 0 | 0 | 0 | Plant response rating, Pigweed [1, 24]: 30; Plant response rating, Pigweed [1, 25]: 0; Plant response rating, Barnyardgrass [2, 24]: 0; Plant response rating, Barnyardgrass [2, 25]: 0 |
